# In paper PMC11436757, “BRCA2 stabilises RAD51 and DMC1 nucleoprotein filaments through a conserved interaction mode” (Nature Communications, 2024):
# “Also recorded” adds a separate entry of the source. No end group written: not given here.
# Columns and labels:
# DMC1 ΔN F85E = assay: Amylose pull-down of His-DMC1 ΔN F85E (monomeric) with MBP-BRCA2 fusions; type: binding, human; settings: lysates mixed; MBP-BRCA2 fusion; 20 mM Tris pH 8.0, 500 mM KCl, 2 mM DTT
# Method: (§1) For affinity experiments involving DMC1 ΔN V179E and F85E, MBP-fusions of BRCA2 fragments (Ex14, amino-acids 2387-2420, Ex14-Tr, amino acids 2401-2414, BRC4, amino acids 1519-1551) were cloned into pMAT11 vectors and DMC1 ΔN mutants (V179E or F85E) were cloned into pHAT4 vectors. Lysates of bacterial cultures expressing His6-DMC1 mutants or MBP-BRCA2 constructs were mixed, and complexes were purified through amylose affinity chromatography in 20 mM Tris pH 8.0, 500 mM KCl, 2 mM DTT and eluted using 30 mM D-maltose.
# DMC1 ΔN V179E = assay: Amylose pull-down of His-DMC1 ΔN V179E with MBP-BRCA2 fusions; type: binding, human; settings: lysates mixed; MBP-BRCA2 fusion; 20 mM Tris pH 8.0, 500 mM KCl, 2 mM DTT
# Method: as §1
# [1] = test system: DMC1 V179E-ssDNA filaments; assay: EMSA, super-shift of filaments formed using DMC1 V179E; type: biochemical, human
# Method: (§2) To form nucleoprotein filaments, DMC1 and RAD51 was incubated with fluorescent 100-base ssDNA (5’-FAM- […]-3’) at the concentrations indicated in the figures for 30 minutes at 4 °C in reaction buffer. For DMC1, reaction buffer is 25 mM TEA (triethanolamine) pH 7.5, 1 mM ATP, 2 mM MgCl2, 0.1 mg/ml BSA, 2 mM DTT, 200 mM KCl. For RAD51, reaction buffer is 50 mM TEA (triethanolamine), 2 mM ATP, 0.5 mM MgCl2, 2 mM DTT. For assays requiring incomplete nucleoprotein filament assembly, the reaction buffer consisted of 50 mM TAE (tris, acetate, EDTA) pH 7.5, 2 mM ATP, 2 mM MgCl2, 2 mM DTT. In nucleoprotein formation stimulation assays or supershift experiments, BRCA2Ex14 or BRCA2Ex14-AAA were added for a further 30 min at 4 °C. […] Glycerol was added at a final concentration of 3%, and samples were analysed by electrophoresis on a 1% (w/v) (for DMC1) or 0.66% (w/v) (for RAD51) agarose gel in 0.5x TAE pH 8.0 at 20–40 V for ~4 h at 4 °C. DNA was detected by FAM using a Typhoon^TM FLA 9500 (GE Healthcare), with 473 nm laser at excitation wavelength 490 nm and emission wavelength 520 nm, using the LPB filter and a PMT voltage of 500 V. To analyse RAD51 nucleoprotein filaments assembled upon 100-base poly(dT) ssDNA, gels were stained post-run using SYBR^TM Gold Nucleic Acid Gel Stain (Invitrogen) and detected using a Typhoon^TM FLA 9500 (GE Healthcare).
# DMC1-ssDNA filaments [2] = assay: EMSA, super-shift of DMC1-ssDNA filaments (TEA pH 7.5 + KCl); type: biochemical, human
# Source text: (§3) What is the function of the BRCA2 Ex14-DMC1 interaction? We used electrophoretic mobility shift assays (EMSAs) to determine the impact of BRCA2-binding on DMC1 nucleoprotein filaments. We used two different conditions for nucleoprotein filament assembly. Firstly, a TAE (tris, acetate, EDTA; pH 7.5) buffer that was previously used for RAD51-ssDNA filaments, in which DMC1-ssDNA filaments were partially formed at the canonical ratio of three nucleotides to one protomer (Fig. 3a). Secondly, a TEA (triethanolamine; pH 7.5) + KCl buffer based on previous DMC1 studies[36]–[38], in which DMC1-ssDNA filament formation was more complete at the canonical ratio (Fig. 3b). […] This was noticeable using Ex14 in equimolar amounts (11 μM), and became substantial at a 5-fold stoichiometric excess (55 μM) (Fig. 3b). As the KD of the DMC1-Ex14 interaction is approximately 30 μM (Fig. 2a), the requirement for a stoichiometric excess is likely due to binding being favoured at Ex14 concentrations above the KD.
# as §2
# DMC1-ssDNA filaments [3] = assay: EMSA, stimulation of DMC1-ssDNA filament formation (TAE pH 7.5); type: biochemical, human; settings: TAE pH 7.5
# Source text: as §3, §2
# [4] = test system: RAD51 L180E-ssDNA filaments; assay: EMSA, protection of RAD51 L180E-ssDNA filaments from BRC4-mediated disruption (random sequence ssDNA); type: biochemical; settings: 100-nt random ssDNA
# Method: as §2
# [5] = test system: RAD51-ssDNA (polydT) filaments; assay: EMSA, protection of RAD51-ssDNA (polydT) filaments from BRC4-mediated disruption; type: biochemical
# Method: as §2
# RAD51 = settings: cited from earlier work
# Source text: BRCA2 interacts with RAD51 and DMC1 recombinases through BRC repeats and PhePP motifs (Fig. 1a)[21],[25]–[28]. The eight BRC repeats, located within BRCA2’s central exon 11 region, bind to RAD51 and DMC1 with various affinities[25],[29],[30]. […] The first loop consists of amino-acids 147-GAGGYPG-153 in DMC1 and 148-IDRGGGE-154 in RAD51 (herein referred to as PhePP-binding loop A; Fig. 1d), and is one of the most divergent regions between DMC1 and RAD51 (Supplementary Fig. 4). The second loop consists of amino-acids 178-NVDHDA-183 in DMC1 and 179-GLSGSD-184 in RAD51 (herein referred to as PhePP-binding loop B; Fig. 1e), in which residues V179 (DMC1) and L180 (RAD51) substantially contribute to the PhePP-binding pocket. ...
# RAD51-ssDNA filaments = assay: EMSA, protection of RAD51-ssDNA filaments from BRC4-mediated disruption (random sequence ssDNA); type: biochemical; settings: 100-nt random ssDNA; 10-fold excess of Ex27
# Method: as §2
# [6] = test system: RAD51 L180E-ssDNA (polydT) filaments; assay: EMSA, protection of RAD51 L180E-ssDNA (polydT) filaments from BRC4-mediated disruption; type: biochemical; settings: 100-nt polydT
# Method: as §2
Substance,binding in pull-down (DMC1 ΔN F85E),binding in pull-down (DMC1 ΔN V179E),super-shift of DMC1 V179E-ssDNA filaments [1],super-shift of pre-formed DMC1-ssDNA filaments (DMC1-ssDNA filaments [2]; 5-fold stoichiometric excess (55 μM)),"super-shift of pre-formed DMC1-ssDNA filaments (DMC1-ssDNA filaments [2]; 100-nt random ssDNA, 4 °C)",super-shift of pre-formed DMC1-ssDNA filaments (DMC1-ssDNA filaments [2]; equimolar (11 μM)),"stimulation of DMC1-ssDNA filament formation upon changing order of addition (DMC1-ssDNA filaments [3]; Ex14 added after DMC1-ssDNA, with DMC1 prior to ssDNA, or with ssDNA prior to DMC1)","stimulation of DMC1-ssDNA nucleoprotein filament formation (DMC1-ssDNA filaments [3]; 100-nt random ssDNA, 4 °C, canonical ratio of three nucleotides to one protomer, equimolar for Ex14)",protection of RAD51 L180E-ssDNA filaments from BRC4-mediated disruption [4],"protection of RAD51-ssDNA (polydT) filaments from BRC4-mediated disruption ([5]; 3-fold excess of Ex27 (33 μM), 10-fold excess of BRC4)","protection of RAD51-ssDNA (polydT) filaments from BRC4-mediated disruption ([5]; 100-nt polydT, 10-fold excess of Ex27)","protection of RAD51-ssDNA filaments from BRC4-mediated disruption ([5]; equimolar Ex27 (11 µM), 10-fold excess of BRC4)","selective binding to RAD51 (RAD51; ref [21],[27],[32])","binding to RAD51 filaments versus monomers (RAD51; ref [33],[34])",protection of RAD51-ssDNA filaments from BRC4-mediated disruption (RAD51-ssDNA filaments),protection of RAD51 L180E-ssDNA (polydT) filaments from BRC4-mediated disruption [6]
ATRNEKMRHLITTGRPTKVFVPPFKTKSHFHRVE [Ex14],failed to interact; also recorded: no interaction,failed to interact; also recorded: blocked its ability to bind Ex14,The residual super-shift was the same; also recorded: only minimal super-shift,substantial,inducing a super-shift; also recorded: induced a super-shift,noticeable,same degree; also recorded: same stimulation; also recorded: order of addition did not affect,"stimulates DMC1-ssDNA nucleoprotein filament assembly, achieving complete DMC1-ssDNA filament formation; also recorded: promoted the formation of DMC1-ssDNA filaments",,,,,,,,
"Ex27: BRCA2 exon 27 PhePP peptide, amino acids 3270-3315 (ALDFLSRLPLPPPVSPICTFVSPAAQKAFQPPRSCGTKYETPIKKK; UniProt P51587 3270-3315, looked up, fragment)",,,,,,,,,not protected; also recorded: abrogated,some protection; also recorded: protection at a 3-fold excess,protects; also recorded: full protection; also recorded: complete protection,no protection,"bind selectively to DMC1 and RAD51, respectively","binds to RAD51 filaments, rather than monomers",less complete; also recorded: not complete; also recorded: protected against BRC4-mediated disruption,not protected; also recorded: almost entirely lost; also recorded: abrogated
